Test results reported in publication PMC12044245 (Emerging Infectious Diseases, 2025).

Columns and labels:
[1] = test system: recombinant A/WSN/33(H1N1) with PA I38N substitution; details: ref [3],[9]; cited from earlier work
[2] = test system: recombinant A/Victoria/3/75(H3N2) with PA I38N substitution; details: ref [3],[9]; cited from earlier work
[3] = target: NA (neuraminidase) of A/Yamagata/103/2024 (Influenza A virus, UniProt C3W5S3); type: biochemical
[4] = target: NA (neuraminidase) of A/Yamagata/333/2023 (Influenza A virus, UniProt C3W5S3)

SMILES: O=C1c2c(O)c(=O)ccn2N([C@@H]2c3ccccc3SCc3c2ccc(F)c3F)[C@@H]2COCCN12 [Baloxavir, baloxavir acid]
- fold reduction in baloxavir susceptibility conferred by PA I38N substitution [1]: 24 fold
- fold reduction in baloxavir susceptibility conferred by PA I38N substitution [2]: 10 fold

SMILES: CCC(CC)[C@H](NC(C)=O)[C@@H]1[C@H](O)[C@@H](C(=O)O)C[C@H]1N=C(N)N [Peramivir, peramivir]
- IC50 [3]: 0.11 nM
- IC50 [4]: 0.08 nM
